Assays:
[1] = CPP content determination (HPLC); type: physicochemical; settings: raw material, initial
Experimental: Preparation of sample stock solution (1 mg/ml anhydrous Cyclophosphamide): an appropriate amount of water is charged into sample bottle with shaking until complete dissolution of the sample, which is transferred to 500 ml volumetric flask. The sample bottle is washed with pure water to ensure complete transfer of all samples into the volumetric flask. The volumetric flask is metered into calibration and shaken for homogeneity.
Preparation of sample solution (0.5 mg/ml anhydrous Cyclophosphamide): 25 ml of sample stock solution and 5.0 ml of internal control solution (precisely weighed 185 mg of ethyl p-hydroxybenzoate control is dissolved in 1000 ml volumetric flask, to which is added 250 ml of ethanol. After shaking for dissolution, pure water is used to meter to calibration with shaking) are charged in 50 ml volumetric flask, which is metered with pure water to calibration with shaking and then used for HPLC analysis.

[2] = Stability in 40° C./75% RH stability test chamber (CPP content); type: physicochemical; settings: raw material
Experimental: The CPP freeze-dried composition hydrated for 16 h was placed in 40° C./75% RH stability test chamber, was sampled after 1 month and 3 months, and determined for CPP contents, which were compared with CPP monohydrate obtained by prior art hydrating process.
The CPP freeze-dried composition hydrated for 16 h was placed in 40° C./75% RH stability test chamber, sampled after 1 month and 3 months for determining CPP contents.

[3] = raw material
Experimental: The moisture content, CPP content and redissolving time were determined for CPP freeze-dried composition hydrated with saturated sodium chloride solution in the freeze-drying box, respectively. In addition, the CPP freeze-dried compositions hydrated for 16 h and 24 h were placed in 45° C. oven and sampled for determining CPP contents after 1 week and 2 weeks, respectively.
Moisture content, CPP content and redissolving time were determined for CPP freeze-dried composition hydrated with saturated sodium chloride solution in the dryer, respectively. In addition, the CPP freeze-dried composition hydrated for 16 h was placed in 45° C. oven, sampled after 1 week and 2 weeks, respectively and determined for CPP contents. The CPP freeze-dried composition hydrated for 16 h was placed in 40° C./75% RH stability test chamber, was sampled after 1 month and 3 months, and determined for CPP contents, which were compared with CPP monohydrate obtained by prior art hydrating process.
The moisture content, CPP content and redissolving time were determined for CPP freeze-dried composition hydrated with saturated potassium sulfate solution in the dryer, respectively. In addition, the CPP freeze-dried composition hydrated for 16 h was placed in 45° C. oven and was sampled for determining CPP contents after 1 week and 2 weeks, respectively. […]

[4] = Bulk density (USP <616> Method I); type: physicochemical; settings: active ingredient; strength NA, hydration solution NA
Experimental: BD is calculated by the following formula: […]
W is the theoretical weight, g;
V0 is the macroscopic volume, mL.
V0 is calculated by the following formula: […]
D is the theoretical inside diameter, cm;

[5] = Tapped density (USP <616> Method I); type: physicochemical; settings: active ingredient; strength NA, hydration solution NA
[6] = Skeletal density (gas pycnometer); type: physicochemical; settings: active ingredient; strength NA, hydration solution NA
Experimental: Skeletal Density, also known as true density, is determined at room temperature by Gas Pycnometer (Micromeritics Accupyc II 1340). Skeletal density is calculated by the following formula: […]
V1 is the true volume of the test sample, measured by Gas Pycnometer, mL.

[7] = Porosity (calculated from bulk and skeletal density); type: physicochemical; settings: active ingredient; strength NA, hydration solution NA
Experimental: The porosity is calculated with the macroscopic volume (V0) & true volume (V1) or the bulk density (ρ0) & skeletal density (ρ1) by the following formula: […]

[8] = Reconstitution time (0.9% sodium chloride injection, cyclotron 250 rpm); type: physicochemical; settings: active ingredient
Experimental: Then the glass vial is placed on cyclotron (HY-5, Shanghai Suhao intelligent system Co. Ltd) which makes the glass vial oscillate at 250 rpm at room temperature to dissolve the active ingredient completely. The reconstitution time is recorded in Table 20.

[9] = type: physicochemical; settings: air dispersion/dry model; hydration pressure 50 kPa
Experimental: The hydrated CPP freeze-dried composition is stirred by weighting scoop gently until flowable powder comes into being. Then 1-2 g test sample is added on injection plate. Test method and parameters are as follows:
It will be understood by a person of ordinary skill in the art that a common approach to defining the distribution width is to cite three values on the x-axis, the D10, D50, and D90. As used herein, the term “D50” refers to the median particle diameter, wherein half of the particle population has a diameter below such value. As used herein, the term “D90,” refers to the particle diameter wherein 90% of the particle population has a diameter below such value. As used herein, the term “D10,” refers to the particle diameter wherein 10% of the particle population has a diameter below such value.

[10] = general description; cited from earlier work

For `O=P1(N(CCCl)CCCl)NCCCO1` (stereo not drawn) [CPP monohydrate raw material, P-[N,N-bis(β-chloroethyl)]-1-oxa-3-aza-2-phosphocyclohexane-P-oxide], which CPP content % [1] is on record?
Its CPP content % is 99.6%.

And the “Stability-CPP content % 40° C./75% RH-1 month” value [2]?
The value was 98.9%.

What about the “Stability-CPP content % 40° C./75% RH-3 month” value [2] of the same molecule?
The value was 86.1%.

What about the “Stability-CPP content % 45° C.-1 week” value [3] of the same molecule?
Its value is 106.1%.

And the “Stability-CPP content % 45° C.-2 week” value [3]?
Its value is 101.8%.

For `O=P1(N(CCCl)CCCl)NCCCO1` (stereo not drawn) [P-[N,N-bis(β-chloroethyl)]-1-oxa-3-aza-2-phosphocyclohexane-P-oxide], which “Bulk Density” value [4] is on record?
The value was 0.6246 g/mL.

What about the “Tapped Density” value [5] of the same molecule?
Its value is 0.9369 g/mL.

What about the “Skeletal Density” value [6] of the same molecule?
The value was 1.4286 g/mL.

What about the Porosity [7] of the same molecule?
The Porosity was 56.28%.

What about the Reconstitution time ([8]; strength 0.5 g) of the same molecule?
Its Reconstitution time is 8.7 min.

What about the Reconstitution time ([8]; strength 1 g) of the same molecule?
The Reconstitution time was 11.2 min.

And the Reconstitution time ([8]; strength 2 g)?
Its Reconstitution time is 16.4 min.

What about the D10 [9] of the same molecule?
The D10 was 5.6 μm.

And the D50 [9]?
The D50 was 34.8 μm.

And the D90 [9]?
The D90 was 262.0 μm.

And the Solubility [10]?
The Solubility was “soluble in water, normal saline or ethanol”.

Reference: US20200155579A1, “Process for Hydrating Cyclophosphamide Freeze-Dried Composition and Product Thereof” (priority 2018, published 2020)
